Experimental data reported in paper PMC3480357, “Fragment-Hopping-Based Discovery of a Novel Chemical Series of Proto-Oncogene PIM-1 Kinase Inhibitors” (PLoS ONE, 2012).
Read-outs that look alike come from different tables or passages of the source. One block for each compound: values may come before it.

Assays:
FLT3 = molecular target: T1, FLT3 (Homo sapiens, UniProt P36888); assay: FLT3 kinase ADP Hunter Plus assay; assay type: biochemical; details: for FLT3 experimental hit classification: hit definition IC50 < 10µM
T1 construct: purchased Invitrogen PV3182
T1 sequence (P36888 564-993 limits assumed): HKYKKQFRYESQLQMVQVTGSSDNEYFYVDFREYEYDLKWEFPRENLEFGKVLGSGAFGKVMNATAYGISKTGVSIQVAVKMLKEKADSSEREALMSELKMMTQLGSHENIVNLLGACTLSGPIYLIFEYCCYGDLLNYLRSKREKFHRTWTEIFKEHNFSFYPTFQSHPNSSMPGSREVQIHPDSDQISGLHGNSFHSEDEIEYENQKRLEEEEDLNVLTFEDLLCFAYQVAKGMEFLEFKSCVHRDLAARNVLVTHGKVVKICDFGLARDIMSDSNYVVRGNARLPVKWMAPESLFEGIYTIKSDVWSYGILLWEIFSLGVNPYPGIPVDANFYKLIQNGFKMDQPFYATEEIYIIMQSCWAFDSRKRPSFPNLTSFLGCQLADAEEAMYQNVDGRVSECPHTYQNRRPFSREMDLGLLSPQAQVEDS
Protocol: Kinase activity was measured with the commercial ADP Hunter™ Plus assay (DiscoveRx Ref. #33-016), a homogeneous assay measuring ADP accumulation, as a universal product of kinase activity. The assay was conducted following the manufacturer’s recommendations and adapting the protein and substrate concentrations for optimal conditions. The kinase assay buffer was 15 mM HEPES, pH 7.4, 20 mM NaCl, 1 mM EGTA, 0.02% Tween-20, 10 mM MgCl2 and 0.1 mg/ml BGG (bovine γ-globulin). All PIM kinase assays were performed with 100 µM ABLtide ([…]) from GenScript as the peptide substrate and 100 µM ATP. Protein concentration (from Invitrogen, PV3182) was 0.4 ng/µl. To calculate the IC50 of the ETP-compounds, serial 1∶3 dilutions were prepared and the reaction was started with the addition of ATP. The reaction was incubated for 1 h at 37°C. Reagents A and B (DiscoveRx) were sequentially added to the wells, and the plates were incubated for 30 min at 25°C. Fluorescence counts were read in an EnVision 2104 Multilabel Reader (Perkin Elmer) with the recommended settings (544 and 580 nm as the excitation and emission wavelengths, respectively). Values were plotted against the inhibitor concentrations and fit to a sigmoid dose–response curve using ActivityBase software.

JNK1 [1] = molecular target: T2, JNK1 (Homo sapiens, UniProt P45983); set-up: method as in PMID 21051136; details: 10 µM; average of two data points; cited from earlier work
T2 sequence (P45983 whole entry, species assumed): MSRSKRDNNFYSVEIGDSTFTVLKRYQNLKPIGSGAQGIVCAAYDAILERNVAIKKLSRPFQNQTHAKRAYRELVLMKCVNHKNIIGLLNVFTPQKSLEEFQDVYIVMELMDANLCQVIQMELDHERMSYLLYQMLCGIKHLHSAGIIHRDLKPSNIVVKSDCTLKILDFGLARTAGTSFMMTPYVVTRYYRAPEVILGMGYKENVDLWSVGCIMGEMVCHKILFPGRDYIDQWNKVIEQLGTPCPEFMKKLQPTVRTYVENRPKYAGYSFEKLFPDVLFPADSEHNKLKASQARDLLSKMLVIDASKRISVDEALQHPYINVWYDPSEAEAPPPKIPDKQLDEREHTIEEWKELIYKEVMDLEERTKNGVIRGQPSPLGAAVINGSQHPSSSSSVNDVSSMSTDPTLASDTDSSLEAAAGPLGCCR

[2] = Metabolic stability in liver microsomes (Mouse); assay type: in vitro ADME; details: 1 µM, 15 minutes
PAMPA passive diffusion = assay type: in vitro ADME; details: LC/MS/MS after 4 hours of incubation at 2 µM; for Papp at 4 h, 2 µM: PAMPA, read-out: PAMPA Pe
Protocol: Therefore, to obtain more detailed information on this critical point, preliminary in vitro ADME profiling was performed for molecule 3. This profiling was mainly focused on hERG activity and on pharmacokinetics parameters, such as metabolic stability and PAMPA (an in vitro model for passive diffusion).

MEK1 = MEK1 (Homo sapiens, UniProt Q02750); assay: ProQinase kinase panel, % inhibition at fixed concentration; assay type: biochemical; details: read-out: MEK1 percentage of inhibition
Chain of MEK1 (Q02750 whole entry, species assumed): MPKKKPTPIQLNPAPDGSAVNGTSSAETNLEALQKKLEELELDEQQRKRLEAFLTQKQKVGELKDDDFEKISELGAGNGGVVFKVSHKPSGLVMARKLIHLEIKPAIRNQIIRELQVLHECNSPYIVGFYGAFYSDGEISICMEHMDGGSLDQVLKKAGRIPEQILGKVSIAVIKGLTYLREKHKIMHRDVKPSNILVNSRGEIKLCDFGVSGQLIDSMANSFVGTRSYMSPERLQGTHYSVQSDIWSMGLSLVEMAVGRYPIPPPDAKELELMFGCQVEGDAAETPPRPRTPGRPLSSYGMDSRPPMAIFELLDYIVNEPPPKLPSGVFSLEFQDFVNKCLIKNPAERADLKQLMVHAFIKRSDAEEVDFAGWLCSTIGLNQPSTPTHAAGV
Protocol: (§1) Off-target selectivity profiling was also performed for compounds 3 and 8 against a panel of 20 kinases (Table 3). […] When taking the differences in screening concentrations into consideration, we can only make unequivocal conclusions about FLT3 (based on the IC50 determination). […] The slight improvement observed for the remainder of the screened targets was likely due to the difference in concentrations.

IKK-β = IKK-β (Homo sapiens, UniProt O14920); assay: as above; assay type: biochemical; details: average of two data points, read-out: IKK-β percentage of inhibition
Chain of IKK-β (O14920 whole entry, species assumed): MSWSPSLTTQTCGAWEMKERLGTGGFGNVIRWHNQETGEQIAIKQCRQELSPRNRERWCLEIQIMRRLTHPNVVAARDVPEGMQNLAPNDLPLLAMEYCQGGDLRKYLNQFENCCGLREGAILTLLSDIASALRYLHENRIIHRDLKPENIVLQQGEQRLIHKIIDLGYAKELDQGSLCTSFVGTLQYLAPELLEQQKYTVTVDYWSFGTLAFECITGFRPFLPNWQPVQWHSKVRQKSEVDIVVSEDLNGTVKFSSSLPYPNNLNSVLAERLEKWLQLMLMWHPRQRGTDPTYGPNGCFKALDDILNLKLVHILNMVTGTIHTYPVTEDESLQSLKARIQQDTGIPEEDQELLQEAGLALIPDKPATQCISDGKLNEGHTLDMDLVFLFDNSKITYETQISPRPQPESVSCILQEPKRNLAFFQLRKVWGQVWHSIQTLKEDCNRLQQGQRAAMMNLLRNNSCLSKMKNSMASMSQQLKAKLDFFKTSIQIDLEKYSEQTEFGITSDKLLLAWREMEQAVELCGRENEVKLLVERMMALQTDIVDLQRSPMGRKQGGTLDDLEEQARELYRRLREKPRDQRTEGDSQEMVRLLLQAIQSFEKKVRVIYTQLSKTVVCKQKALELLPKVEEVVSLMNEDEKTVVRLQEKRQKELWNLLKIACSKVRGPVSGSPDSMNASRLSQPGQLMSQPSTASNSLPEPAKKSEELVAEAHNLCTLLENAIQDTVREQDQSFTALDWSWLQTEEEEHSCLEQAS
Protocol: as §1

[3] = Metabolic stability in liver microsomes (Human); assay type: in vitro ADME; details: for Met. Stab. (Human), percentage of the original compound that remained: 1 µM, liver microsomes, 15 minutes
PIM-3 = PIM-3 (Homo sapiens, UniProt Q86V86); assay: PIM-3 kinase ADP Hunter Plus assay; assay type: biochemical; details: 100 µM ATP
Protocol: Kinase activity was measured with the commercial ADP Hunter™ Plus assay (DiscoveRx Ref. #33-016), a homogeneous assay measuring ADP accumulation, as a universal product of kinase activity. The assay was conducted following the manufacturer’s recommendations and adapting the protein and substrate concentrations for optimal conditions. The kinase assay buffer was 15 mM HEPES, pH 7.4, 20 mM NaCl, 1 mM EGTA, 0.02% Tween-20, 10 mM MgCl2 and 0.1 mg/ml BGG (bovine γ-globulin). All PIM kinase assays were performed with 100 µM PIMtide ([…]) as the peptide substrate and 100 µM ATP. The protein concentrations were 50, 350 and 500 ng/µl for PIM-1, 2 and 3, respectively. To calculate the IC50 of the ETP-compounds, serial 1∶5 dilutions were prepared and the reaction was started with the addition of ATP. The reaction was incubated for 1 h at 25°C. Reagents A and B (DiscoveRx) were sequentially added to the wells, and the plates were incubated for 30 min at 37°C. Fluorescence counts were read in a Victor instrument (Perkin Elmer) with the recommended settings (544 and 580 nm as the excitation and emission wavelengths, respectively). Values were plotted against the inhibitor concentrations and fit to a sigmoid dose–response curve using GraphPad software.

[4] = Metabolic stability in liver microsomes (Rat); assay type: in vitro ADME; details: 1 µM, 15 minutes
FAK = FAK (Homo sapiens, UniProt Q05397); assay: ProQinase kinase panel, % inhibition at fixed concentration; assay type: biochemical
Chain of FAK (Q05397 whole entry, species assumed): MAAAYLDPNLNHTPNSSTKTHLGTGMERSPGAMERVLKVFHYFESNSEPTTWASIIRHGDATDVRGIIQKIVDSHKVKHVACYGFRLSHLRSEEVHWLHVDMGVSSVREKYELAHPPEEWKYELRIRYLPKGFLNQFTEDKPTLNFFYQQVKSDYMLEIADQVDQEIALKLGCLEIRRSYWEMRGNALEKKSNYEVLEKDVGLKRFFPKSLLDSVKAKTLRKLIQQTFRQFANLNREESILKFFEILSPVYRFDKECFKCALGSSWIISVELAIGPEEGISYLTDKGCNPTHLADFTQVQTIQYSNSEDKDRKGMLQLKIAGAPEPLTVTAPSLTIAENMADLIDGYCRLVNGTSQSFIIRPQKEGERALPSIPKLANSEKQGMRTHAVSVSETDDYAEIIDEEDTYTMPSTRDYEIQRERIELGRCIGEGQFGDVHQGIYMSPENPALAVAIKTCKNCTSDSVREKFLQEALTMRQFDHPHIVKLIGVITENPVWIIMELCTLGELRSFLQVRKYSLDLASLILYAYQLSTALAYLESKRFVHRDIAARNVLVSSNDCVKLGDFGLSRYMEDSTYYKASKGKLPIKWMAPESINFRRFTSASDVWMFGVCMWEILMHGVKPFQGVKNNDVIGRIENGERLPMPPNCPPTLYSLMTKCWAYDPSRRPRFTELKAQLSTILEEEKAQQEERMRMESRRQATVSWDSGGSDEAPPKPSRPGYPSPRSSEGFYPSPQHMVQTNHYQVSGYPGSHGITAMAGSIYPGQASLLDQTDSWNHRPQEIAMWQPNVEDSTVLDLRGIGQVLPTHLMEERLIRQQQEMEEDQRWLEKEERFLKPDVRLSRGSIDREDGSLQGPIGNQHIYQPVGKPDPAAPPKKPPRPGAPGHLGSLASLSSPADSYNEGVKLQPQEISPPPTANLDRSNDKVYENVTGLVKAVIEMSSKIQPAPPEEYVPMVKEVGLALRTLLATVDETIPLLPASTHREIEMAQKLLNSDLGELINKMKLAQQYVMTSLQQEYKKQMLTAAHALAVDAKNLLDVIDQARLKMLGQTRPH

KIT = KIT (Homo sapiens, UniProt P10721); assay: as above; assay type: biochemical
Chain of KIT (P10721 26-976, species assumed): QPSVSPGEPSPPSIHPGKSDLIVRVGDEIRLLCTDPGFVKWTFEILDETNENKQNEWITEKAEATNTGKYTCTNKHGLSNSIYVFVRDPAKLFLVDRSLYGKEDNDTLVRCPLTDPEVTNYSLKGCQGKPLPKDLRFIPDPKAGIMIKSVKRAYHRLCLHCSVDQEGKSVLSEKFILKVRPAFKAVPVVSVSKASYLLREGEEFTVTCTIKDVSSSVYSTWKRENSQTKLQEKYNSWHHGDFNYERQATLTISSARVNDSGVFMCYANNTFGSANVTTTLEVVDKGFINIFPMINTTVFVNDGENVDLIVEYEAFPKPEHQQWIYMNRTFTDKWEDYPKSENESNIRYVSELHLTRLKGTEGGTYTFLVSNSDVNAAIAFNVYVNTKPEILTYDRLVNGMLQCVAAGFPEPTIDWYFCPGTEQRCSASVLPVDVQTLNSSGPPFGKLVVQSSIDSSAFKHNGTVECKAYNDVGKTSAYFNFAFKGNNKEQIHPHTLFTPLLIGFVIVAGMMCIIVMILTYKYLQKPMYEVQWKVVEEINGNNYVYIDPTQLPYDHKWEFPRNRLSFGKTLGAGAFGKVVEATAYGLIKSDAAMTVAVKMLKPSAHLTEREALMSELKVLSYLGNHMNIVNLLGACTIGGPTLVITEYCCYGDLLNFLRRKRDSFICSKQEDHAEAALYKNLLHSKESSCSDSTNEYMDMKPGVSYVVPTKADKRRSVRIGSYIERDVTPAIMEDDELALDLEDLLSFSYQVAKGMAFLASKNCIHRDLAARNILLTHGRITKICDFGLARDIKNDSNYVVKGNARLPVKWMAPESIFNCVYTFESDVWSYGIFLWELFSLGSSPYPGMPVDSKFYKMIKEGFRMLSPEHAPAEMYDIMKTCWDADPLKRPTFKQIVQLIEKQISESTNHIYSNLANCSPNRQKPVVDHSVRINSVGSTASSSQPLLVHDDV

PIM-2 = PIM-2 (Homo sapiens, UniProt Q9P1W9); assay: PIM-2 kinase ADP Hunter Plus assay; assay type: biochemical; details: 100 µM ATP
Chain of PIM-2 (Q9P1W9 whole entry): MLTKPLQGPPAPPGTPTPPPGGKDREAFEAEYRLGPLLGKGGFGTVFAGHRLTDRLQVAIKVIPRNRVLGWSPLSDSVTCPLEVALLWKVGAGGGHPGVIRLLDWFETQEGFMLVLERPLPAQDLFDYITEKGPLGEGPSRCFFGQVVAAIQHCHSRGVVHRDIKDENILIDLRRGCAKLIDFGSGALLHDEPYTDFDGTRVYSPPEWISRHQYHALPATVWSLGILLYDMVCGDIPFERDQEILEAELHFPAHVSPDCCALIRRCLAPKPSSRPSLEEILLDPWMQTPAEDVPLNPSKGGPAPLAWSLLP

JNK1 [5] = molecular target: T2, JNK1; assay: ProQinase kinase panel, % inhibition at fixed concentration; assay type: biochemical
Protocol: (§2) Once compounds 7 and 8 were synthesized, a pairwise comparison was performed to strictly evaluate the real impact of this fragment-hopping where imidazopyridazine is replaced by triazolopyridine.

INS-R = INS-R (Homo sapiens, UniProt P06213); assay: as above; assay type: biochemical
Chain of INS-R (P06213 980-1382 limits assumed, species assumed): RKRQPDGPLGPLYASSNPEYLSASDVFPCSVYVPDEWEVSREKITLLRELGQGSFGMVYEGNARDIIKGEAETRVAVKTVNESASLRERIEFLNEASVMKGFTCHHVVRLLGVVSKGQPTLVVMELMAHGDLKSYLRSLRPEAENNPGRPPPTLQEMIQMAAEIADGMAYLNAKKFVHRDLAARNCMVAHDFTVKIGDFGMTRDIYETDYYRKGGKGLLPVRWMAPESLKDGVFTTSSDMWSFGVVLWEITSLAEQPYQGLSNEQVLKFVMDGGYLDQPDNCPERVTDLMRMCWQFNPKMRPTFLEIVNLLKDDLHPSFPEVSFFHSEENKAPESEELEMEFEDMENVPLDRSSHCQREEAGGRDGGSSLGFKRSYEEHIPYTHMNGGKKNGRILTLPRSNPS
Protocol: as §2

[6] = ADP Hunter Plus, 100 µM ATP, read-out: FLT-3 IC50
[7] = compound 7 vs compound 1, 10 µM
[8] = hit definition % inhibition > 40, ligand at 5µM

IC50 (FLT3; [6]): 0.001 µM
SMILES: Oc1ccc(-c2cnc3ccc(NCc4ccc(F)cc4)nn23)cc1 [Compound 1]
JNK1 percentage of inhibition (JNK1 [1]): 62%

SMILES: CN1CCC(CNc2ccc3ncc(-c4cccc(OC(F)(F)F)c4)n3n2)CC1 [Compound 3, reference compound]
Met. Stab. (Mouse), percentage of the original compound that remained [2]: 5%
Papp at 4 h, 2 µM (PAMPA passive diffusion): 0.015 nm/s
inhibition at 10 µM (MEK1): 11%
inhibition at 10 µM (IKK-β; inhibitor at 10 µM): 0%
Met. Stab. (Human), percentage of the original compound that remained [3]: 31%
IC50 (PIM-3): 0.046 µM
Met. Stab. (Rat), percentage of the original compound that remained [4]: 23%
IC50 (FLT3): 0.005 µM

inhibition at 10 µM (FAK; inhibitor at 10 µM, average of two data points, read-out: FAK percentage of inhibition): 38%
KIT experimental hit classification (KIT; hit definition % inhibition > 50, ligand at 10µM): hit
inhibition at 10 µM (KIT; inhibitor at 10 µM, average of two data points, read-out: KIT percentage of inhibition): 51%
IC50 (PIM-2): 0.333 µM
IC50 (PIM-3): 0.051 µM
IC50 (FLT3; [6]): 1.84 µM
FLT3 experimental hit classification (FLT3): hit
inhibition at 10 µM (JNK1 [5]; inhibitor at 10 µM, average of two data points, read-out: JNK1 percentage of inhibition): 11%
inhibition at 10 µM (INS-R; inhibitor at 10 µM, average of two data points, read-out: INS-R percentage of inhibition): 32%
SMILES: Oc1ccc(-n2nnc3ccc(NCc4ccc(F)cc4)nc32)cc1 [Compound 7, 4-[5-(4-Fluoro-benzylamino)-[1], [2], [3]triazolo[4,5-b]pyridin-3-yl]-phenol]
KIT improvement in percentage of inhibition (KIT; [7]): b (This designation indicates that the improvement in percentage of inhibition was equal or greater than 25%)
JNK1 improvement in percentage of inhibition (JNK1 [5]; [7]): c (This designation indicates that the improvement in percentage of inhibition was equal or greater than 50%)
INS-R improvement in percentage of inhibition (INS-R; [7]): b (This designation indicates that the improvement in percentage of inhibition was equal or greater than 25%)

FAK experimental hit classification (FAK; [8]): not a FAK hit
inhibition at 5 µM (FAK; inhibitor at 5 µM, average of two data points, read-out: FAK percentage of inhibition): 34%
Met. Stab. (Mouse), percentage of the original compound that remained [2]: 27%
KIT increment in percentage of inhibition (KIT; compound 8 (5 µM) versus compound 3 (10 µM)): > 50%
KIT experimental hit classification (KIT; [8]): hit
inhibition at 5 µM (KIT; inhibitor at 5 µM, average of two data points, read-out: KIT percentage of inhibition): 44%
PAMPA Pe (PAMPA passive diffusion): 0.74 10^-6 cm/s
Papp at 4 h, 2 µM (PAMPA passive diffusion): ~10 nm/s
inhibition at 5 µM (MEK1; inhibitor at 5 µM, average of two data points): 33%
inhibition at 5 µM (IKK-β; inhibitor at 5 µM): 3%
IC50 (PIM-2): 4.95 µM
Met. Stab. (Human), percentage of the original compound that remained [3]: 77%
increase in metabolic stability in human liver microsomes ([3]; molecule 8 vs compound 3): more than 45%
IC50 (PIM-3): 0.724 µM
Met. Stab. (Rat), percentage of the original compound that remained [4]: 35%
IC50 (FLT3; [6]): 1.32 µM
FLT3 experimental hit classification (FLT3): hit
SMILES: CN1CCC(CNc2ccc3nnn(-c4cccc(OC(F)(F)F)c4)c3n2)CC1 [Compound 8, (1-Methyl-piperidin-4-ylmethyl)-[3-(3-trifluoromethoxy-phenyl)-3H-[1], [2], [3]triazolo[4,5-b]pyridin-5-yl]-amine]
KIT improvement in percentage of inhibition (KIT; compound 8 (5 µM) vs compound 3 (10 µM)): c (This designation indicates that the improvement in percentage of inhibition was greater than 50%)
